Measurements published in patent US20120053211A1, “TREATMENT OF PANCREATIC CANCER” (ARDEA BIOSCIENCES, INC., priority 2009, published 2012).
Read-outs that look alike come from different tables or passages of the source.

How the values were obtained:
tumor = assay: Tumor volume following administration of compound A (FIG. 3, FIG. 4); assay type: in vivo
[1] = test system: human pancreatic cancer cell line BxPC3; assay: In vitro activity in human pancreatic cancer cell line BxPC3; assay type: cell-based; details: read-out: EC50 (nM) (±standard deviation)
Experimental: The in vitro activity of compound A was determined in the human pancreatic cancer cell line BxPC3 (normal […] status). EC50 values were determined (in 1% FBS and with 45 mg/mL has), as follows

EC50 ([1]; BXPC-3, BxPC3, 1% FBS): 15.8 ± 2.4 nM | EC50 ([1]; BXPC-3, BxPC3, +45 mg/mL hSA): 207 ± 29 nM
SMILES: COc1cc(F)c(F)c(Nc2ccc(I)cc2F)c1NS(=O)(=O)C1(C[C@H](O)CO)CC1 [Compound A, (S)-N-(3,4-difluoro-2-(2-fluoro-4-iodophenylamino)-6-methoxyphenyl)-1-(2,3-dihydroxypropyl)cyclopropane-1-sulfonamide]
tumor volume as a function of time (tumor; FIG. 3): decrease in tumor volume | tumor volume as a function of time (tumor; FIG. 4): decrease in tumor volume
